Source: patent US20070191324A1, “Methods for treatment or prophylaxis of aldosterone-mediated pathogenic effects in a subject using an epoxy-steroidal aldosterone antagonist” (priority 1999, published 2007)

Legend:
[1] = system: patients with mild-to-moderate hypertension; assay: Long-term open-label safety and efficacy study of eplerenone (Example D-11); format: in vivo, human; parameters: mean change from baseline SBP: unit not given beside the values; conditions: for Change Mean seated DBP, Baseline to End of Treatment / Change Mean seated SBP, Baseline to End of Treatment: Responders, ITT
Procedure: This 6- to 16-month, open-label, single-group, titration-to-effect study assessed the safety, tolerability, and efficacy of EPL in patients with mild-to-moderate hypertension.
Patients (n=586) with DBP ≧90 mmHg and <110 mmHg, or SBP ≧140 mmHg and <180 mmHg, received EPL 50 mg QD. If BP was uncontrolled at Weeks 2 or 4 (DBP ≧90 mmHg or SBP ≧140 mmHg), EPL was up-titrated to 100 mg QD and, if necessary, 200 mg QD. If BP remained uncontrolled at any time from Week 6 to the end of Month 3, a second antihypertensive medication of the investigator's choice was added. Safety, tolerability, and BP were assessed at protocol-specified times.

[2] = system: patients with hypertension; assay: Dose-ranging study of eplerenone vs placebo and spironolactone in hypertension (Examples A-14, D-1); format: in vivo, human
Procedure: A multicenter, randomized, double-blind, parallel group study was conducted in patients with hypertension. […] The study consisted of a two-week pretreatment period for completion of screening procedures and discontinuation of any current antihypertensive medication(s). The screening period was followed by a four-week single-blind placebo lead-in treatment period. Randomization was followed by an eight-week double-blind active or placebo treatment period. The primary efficacy measure was the change from baseline in cuff diastolic blood pressure measured at trough as compared to placebo. Secondary efficacy measures included changes in cuff assessed trough systolic blood pressure and changes in average 24-hour diastolic and systolic blood pressure assessed by ambulatory blood pressure monitoring. Safety was assessed by conducting routine clinical lab tests, physical exams, ECGs, and monitoring for adverse events. […] The adjusted mean change in blood pressure (mm Hg) from baseline to final visit is described in Table […].

[3] = system: saline-hydrated conscious dogs treated with aldosterone; assay: Antimineralocorticoid action in saline-hydrated conscious dogs treated with aldosterone (Example A-2); format: in vivo; conditions: aldosterone i.v. infusion; antagonist 10 mg/kg orally
[4] = system: saline-loaded adrenalectomized rats treated with aldosterone; assay: Subcutaneous vs. oral eplerenone in saline-loaded adrenalectomized rats treated with aldosterone (Example A-3); format: in vivo
Procedure: Urinary sodium, potassium and water excretion were measured. The results are expressed as the ratio of excreted urinary sodium to potassium (Na/K)±SEM.

[5] = system: saline-drinking SHRSP; assay: Renal pathologic changes in saline-drinking SHRSP, Protocol 1 (Example A-8); format: in vivo, rat (SHRSP/A3N)
Procedure: Animals. Studies were conducted in accordance with institutional guidelines using male […] (generations […]-78), n=37, from our local colony. These animals were bred from NIH stock, derived from the […] substrain described originally by Okamoto and coworkers (Okamoto K et al. Circ. […] All animals were housed in a room maintained on a 12:12-h light:dark-cycle and an ambient temperature of 22±1° C. in the Animal Care Facility at New York Medical College. Rats were weaned at 4 weeks of age and allowed free access to Purina Lab Chow 5001 (Ralston Purina, St. Louis, Mo.) and tap water until the initiation of experimental protocols. […] Animals were examined each day for neurologic signs of stroke. Systolic arterial pressure and heart rate were measured each week in awake rats. […] Trunk blood was collected into chilled EDTA tubes following rapid decapitation of the animals between 10:00 am and 12:00 pm. Blood was stored at -20° C. for later measurement of plasma aldosterone levels. The kidneys were rapidly removed, weighed, and then preserved in fixative for later histologic examination. Assays and Analyses. Systolic blood pressure and heart rate of awake animals were measured by tail-cuff plethysmography using a Natsume KN-210 manometer and tachometer (Peninsula Laboratories Inc., Belmont, Calif.). Rats were warmed at 37° C. for 10 min and allowed to rest quietly in a Lucite chamber before measurement of blood pressure. Measurements of urine volume were made gravimetrically. Urinary protein concentration was determined by the sulfosalicylic acid turbidity method. Plasma aldosterone was measured by radioimmunoassay using ^125I-aldosterone as a tracer (Coat-a Count Aldosterone, Diagnostic Products Co., Los Angeles, Calif.). Histology. […] Coronal sections (2-3 μm) were stained with hematoxylin and eosin and examined by light microscopy in a blinded fashion as previously described ([…] et al. […] Glomerular damage was categorized as ischemic or thrombotic. Ischemic lesions were defined as retraction of glomerular capillary tufts with or without appreciable mesangiolysis. […] The presence of casts and tubular (ischemic) retraction and simplification was assessed semiquantitatively. […] Significant effects with respect to treatment and time were determined by two-way analysis of variance. Data with only one grouping variable were analyzed statistically by Student's unpaired t tests. […] Data were analyzed using version 2.01 of the GraphPad Prism statistical software package (GraphPad Software Inc., San Diego, Calif.). […]

[6] = EPL 200 mg plus add-on therapy (N=172)
[7] = subgroup 50, 100, 200 mg QD + Ahyp (add-on therapy)
[8] = final dose level EPL 50 mg (N=68)
[9] = final dose level EPL 100 mg (N=89)
[10] = final dose level EPL 200 mg (N=104)

COC(=O)[C@@H]1CC2=CC(=O)CC[C@]2(C)[C@@]23O[C@@H]2C[C@@]2(C)[C@@H](CC[C@@]24CCC(=O)O4)[C@H]13 [Eplerenone, Pregn-4-ene-7,21-dicarboxylic acid, 9,11-epoxy-17-hydroxy-3-oxo-, γ-lactone, methyl ester, (7α, 11α, 17β)-]
patients responding to eplerenone monotherapy ([1]; 261/582): 44.8% | mean change from baseline DBP [1, 6]: −14.6 | mean change from baseline SBP [1, 6]: −24.9 | Change Mean seated DBP, Baseline to End of Treatment ([1]; subgroup 50 mg QD): −10.6 mmHg | Change Mean seated SBP, Baseline to End of Treatment ([1]; subgroup 50 mg QD): −15.9 mmHg | Change Mean seated DBP, Baseline to End of Treatment ([1]; subgroup 50, 100 mg QD): −12.2 mmHg | Change Mean seated SBP, Baseline to End of Treatment ([1]; subgroup 50, 100 mg QD): −18.1 mmHg | Change Mean seated DBP, Baseline to End of Treatment ([1]; subgroup 50, 100, 200 mg QD): −12.5 mmHg | Change Mean seated SBP, Baseline to End of Treatment ([1]; subgroup 50, 100, 200 mg QD): −19.1 mmHg | Change Mean seated DBP, Baseline to End of Treatment [1, 7]: −14.6 mmHg | Change Mean seated SBP, Baseline to End of Treatment [1, 7]: −24.9 mmHg | gynecomastia ([1]; doses of 50, 100, and 200 mg): 0.7% | mean change from baseline DBP [1, 8]: −10.6 | mean change from baseline SBP [1, 8]: −15.9 | mean change from baseline DBP [1, 9]: −12.2 | mean change from baseline SBP [1, 9]: −18.1 | mean change from baseline DBP [1, 10]: −12.5 | mean change from baseline SBP [1, 10]: −19.1 | patients with treatment-emergent AEs of probable relationship to study medication ([1]; in vivo): 8.4% | patients with treatment-emergent AEs of uncertain relationship to study medication ([1]; in vivo): 21.5% | responders at the end of treatment, number ([1]; of 582 patients): 433 patients | responders (seDBP<90 mmHg or ≧10 mmHg decrease from Baseline) at the end of treatment ([1]; of 582 patients, EPL 50-200 mg QD with or without add-on): 74.3% | patients with elevated K+ levels ([1]; primarily those receiving EPL 200 mg): 2.4% | safety and tolerability ([1]; up to 14 months, 50-200 mg daily alone or 200 mg/day with another antihypertensive agent): safe and well tolerated | gynecomastia ([2]; 50-400 mg daily, 8 weeks): no reports of gynecomastia | safety and tolerability ([2]; 50-400 mg daily, QD or divided doses): safe and well tolerated | DBP and SBP vs. placebo ([2]; wide range of doses, regardless of assessment method (FIG. D-1, D-2)): significant reductions | Na/K Ratio [3]: 2.1 | Urinary Excretion Potassium [3]: 11.9 ± 1 mmol/2 h | Urinary Excretion Sodium [3]: 24.4 ± 3 mmol/2 h | Mean Na/K ([4]; Table A-3A, aldosterone + antagonist 10 mg/100 g rat): 2.17 | Mean Na/K ([4]; Table A-3A, aldosterone + antagonist 30 mg/100 g rat): 2.98 | Mean Na/K ([4]; Table A-3A, aldosterone + antagonist 100 mg/100 g rat): 3.44 | Mean Na/K ([4]; Table A-3B, aldosterone + antagonist 3 mg/100 g rat): 0.90 | Mean Na/K ([4]; Table A-3B, aldosterone + antagonist 10 mg/100 g rat): 1.34 | Mean Na/K ([4]; Table A-3B, aldosterone + antagonist 30 mg/100 g rat): 1.18 | Mean Na/K ([4]; Table A-3B, aldosterone + antagonist 100 mg/100 g rat): 2.10 | Mean Na/K ([4]; Table A-3B, aldosterone + antagonist 300 mg/100 g rat): 4.79 | Mean Na/K ([4]; Table A-3B, aldosterone + antagonist 1000 mg/100 g rat): 5.70 | efficacy of subcutaneous injection versus oral administration ([4]; antagonism of aldosterone-mediated renal effects): Subcutaneous injection provided better efficacy than oral administration | Glomerular damage, Total ([5]; 100 mg/kg/d by gavage, 8.4 to 13.1 weeks of age): only rare instances of ischemic or thrombotic glomeruli | plasma concentration of aldosterone ([5]; 100 mg/kg/d, 5 weeks): 315 ± 35 pg/mL | signs of stroke ([5]; 100 mg/kg/d, 5 weeks): none of eplerenone-treated SHRSP showed evidence of stroke | tubules with ischemic retraction and simplification ([5]; 100 mg/kg/d, 5 weeks): 0.5±0.2%
